Results reported in patent US20210088529A1, “USE OF QUINALDINE RED AND DERIVATIVES THEREOF IN PREPARATION OF KIT FOR DETECTING AMYLOID FIBRILS” (Jilin University, priority 2019, published 2021).

How the values were obtained:
bovine insulin fibrils [1] = target: T1, bovine insulin fibrils (Bos taurus, UniProt P01317); test: Fluorescence response (identification) of bovine insulin fibrils by the dye; type: binding; conditions: for identification of bovine insulin fibril (fluorescence intensity, dye comparison): 0.05 ml dye + 0.05 ml fibrils, diluted with PBS to 1 ml; for identification effect on bovine insulin fibrils (fluorescence intensity): dye 0.2 mM, dye-insulin 0.025 mM, dye-insulin fibril 0.025 mM, FIG. 3A / FIG. 7
T1 sequence (P01317 25-54 limits assumed): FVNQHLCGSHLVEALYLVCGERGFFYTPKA
T1 sequence (P01317 85-105 limits assumed): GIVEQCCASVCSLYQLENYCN
Method: 2) The bovine insulin fibrils were diluted with PBS to 0 μm, 1 μm, 3 μm, 5 μm, 10 μm, 20 μm and 30 μm respectively. Then the diluted samples were each added with 0.05 mL of […] (1 mM) solution, and tested in a fluorescence spectrometer for the fluorescence intensity (λex=440 nm). […] The results are shown in FIG. 1, where FIG. 1-A was the detection limit of QR on the bovine insulin fibrils; and FIG. 1-B was a linear interval for QR identification of the bovine insulin fibrils.
QR (0.2 mM), QR-insulin (0.025 mM) and QR-insulin fibril (0.025 mM) were determined for fluorescence intensities respectively.
(§1) 0.05 ml of each of QR, ThT, ThS and NR solutions was taken, then added with 0.05 ml of the bovine insulin fibrils, diluted with 0.9 ml of PBS to 1 ml, and then determined for the fluorescence intensity.
The fluorescence intensities of 4-(4-dimethylaminostyryl)quinoline (0.2 mM), 4-(4-dimethylaminostyryl)quinoline-insulin (0.025 mM) and 4-(4-dimethylaminostyryl)quinoline-insulin fibrils (0.025 mM) were determined respectively.

insulin fibril = insulin fibril (Bos taurus, UniProt P01317); test: Photobleaching experiment under ultraviolet light (365 nm); type: physicochemical, bovine; conditions: UV 365 nm, insulin fibril 0.025 mM, dyes 0.05 mm, measured every 30 minutes; FIG. 6
Chain of insulin fibril (P01317 25-54 limits assumed): as the sequence (P01317 25-54 limits assumed) above
Method: A photobleaching experiment was carried out under ultraviolet light (365 nm). An insulin fibril (0.025 mM) was mixed with QR, ThT, ThS and NR respectively, with the concentrations of all dyes being 0.05 mm. The mixtures were placed under an ultraviolet lamp (365 nm) and measured for fluorescence every 30 minutes.

[2] = target: bovine insulin amyloid fibrils (Bos taurus, UniProt P01317); test: Monitoring the kinetic process of bovine insulin fibrillation by fluorescence; conditions: 0.5 mM insulin in NaCl/HCl pH 1.6, samples at different time points, QR 1 mM 0.05 mL; FIG. 3B
Chain of bovine insulin amyloid fibrils (P01317 25-54 limits assumed): as above
Method: As the mechanism of amyloid fibril-related disease was still being explored, and the kinetic process of the amyloid fibrils might provide relevant information for the mechanism, the kinetic process of the formation of the bovine insulin amyloid fibrils was monitored with QR. […] Three duplicate samples were made for each group of samples, and all of the above samples were determined on a fluorescence spectrometer for fluorescence intensities.

lysozyme fibrils = lysozyme fibrils (Gallus gallus, UniProt P00698); test: Fluorescence identification of lysozyme fibrils; type: binding; conditions: lysozyme 0.1 mM fibrillated at 65° C. for 180 min; FIG. 3C
Chain of lysozyme fibrils (P00698 19-147): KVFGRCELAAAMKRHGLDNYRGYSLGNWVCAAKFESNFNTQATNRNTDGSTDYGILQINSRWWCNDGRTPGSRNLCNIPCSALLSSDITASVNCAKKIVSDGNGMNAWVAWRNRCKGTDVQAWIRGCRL
Method: Formulation of a glycine/NaCl buffer solution: the pH value of the glycine/NaCl aqueous solution was adjusted to 2.0 with HCl, where the concentration of sodium chloride was 80 mM and the concentration of glycine was 70 mM.
The lysozyme (0.1 mM) was dissolved in a glycine/NaCl buffer solution for fibrillation at 65° C. under magnetic stirring at a rotation rate of 220 rmp for 180 min. The fluorescence intensities of QR, QR-lysozyme and QR-lysozyme fibrils were determined respectively.

lysozyme amyloid fibrils = lysozyme amyloid fibrils (Gallus gallus, UniProt P00698); test: Monitoring the kinetic process of lysozyme fibrillation by fluorescence; conditions: lysozyme 0.1 mM in glycine/NaCl pH 2.0, samples at different time points; FIG. 3D
Chain of lysozyme amyloid fibrils (P00698 19-147): as above
Method: The kinetic process of the formation of the lysozyme amyloid fibrils was monitored with QR. […] Three duplicate samples were made for each group of samples, and all of the above samples were determined on a fluorescence spectrometer for fluorescence intensities.

bovine insulin [3] = target: T2, bovine insulin (Bos taurus, UniProt P01317); test: Isothermal titration calorimetry (ITC) of dyes with bovine insulin; type: binding; conditions: 25° C., insulin 0.25 mM, dyes 0.01 mM, FIG. 4
T2 sequence (P01317 25-54 limits assumed): as the sequence (P01317 25-54 limits assumed) above
Method: Isothermal titration calorimetry (ITC): the bovine insulin was diluted to a final concentration of 0.25 mM, the QR, ThT, ThS, NR were each diluted to a final concentration of 0.01 mM, and then the aforementioned dyes were titrated with the bovine insulin at 25° C., where the dye was added dropwise into a sample chamber containing a solution of the bovine insulin through an automatically-controlled rotary syringe. At the same time, a blank test was carried out, where dye solutions with equal concentration and equal volume were added dropwise into ultra-pure water, and dilution heat was deducted to obtain a binding constant.

bovine insulin fibrils [4] = target: T1, bovine insulin fibrils; test: QR replacement of a conventional probe bound to bovine insulin fibrils; type: binding; conditions: ThS or NR bound first, then QR added, FIGS. 5B-5D
Method: as §1
Since the binding constant of binding between QR and the bovine insulin is the largest, ThT, ThS, and NR were first used to bind to the bovine insulin fibrils for fluorescence determination, then QR was added for a replacement reaction.

bovine insulin [5] = target: T2, bovine insulin; test: Raman (SERS) study of the manner of binding between QR and bovine insulin; conditions: SERS on silver sol, 532 nm, QR 0.01 mM, bovine insulin 0.01 mM; FIG. 2
Method: The manner of binding between QR and the bovine insulin was studied by using a Raman spectrometer with an excitation line of a laser model of 532 nm. First, a silver sol was synthesized as a SERS (surface-enhancement raman scattering) substrate. The synthesized silver nanoparticles were respectively added with the bovine insulin (0.01 mM), QR (0.01 mM) and a mixed sample of them, for detection.

Thioflavin S [ThS, reference compound]
identification of bovine insulin fibril (fluorescence intensity, dye comparison) (bovine insulin fibrils [1]; FIG. 5-A): could well identify the bovine insulin fibril
fluorescence intensity of dye + insulin fibrils with increase of the illumination time (photostability) (insulin fibril): decreased significantly

CN(C)c1ccc(C=Cc2ccnc3ccccc23)cc1 [4-(4-dimethylaminostyryl)quinoline]
identification effect on bovine insulin fibrils (fluorescence intensity) (bovine insulin fibrils [1]): good identification effect

Cc1ccc2c(c1)sc(-c1ccc(N(C)C)cc1)[n+]2C.[Cl-] [ThT, Thioflavin T, reference compound]
identification of bovine insulin fibril (fluorescence intensity, dye comparison) (bovine insulin fibrils [1]; FIG. 5-A): could well identify the bovine insulin fibril
fluorescence intensity of dye + insulin fibrils with increase of the illumination time (photostability) (insulin fibril): decreased significantly

CC[n+]1c(/C=C/c2ccc(N(C)C)cc2)ccc2ccccc21 [QR, quinaldine red]
identification of bovine insulin fibril (fluorescence intensity, dye comparison) (bovine insulin fibrils [1]; FIG. 5-A): could well identify the bovine insulin fibril
identification effect on bovine insulin fibrils (fluorescence intensity) (bovine insulin fibrils [1]): good identification effect
linear range of fluorescence response to bovine insulin fibrils (bovine insulin fibrils [1]; fibrils diluted with PBS to 0-30 μm, fluorescence spectrometer, FIG. 1): 0-30 μm
fluorescence intensity compared with the other dyes (bovine insulin fibrils [1]; red light region, FIG. 5-A): certain advantages of the fluorescence intensity in the red light region
detection of the dynamic process of bovine insulin fibrillation [2]: could well detect the dynamic process of bovine insulin fibrillation
identification effect on lysozyme fibrils (fluorescence intensity) (lysozyme fibrils): good identification effect
detection of the dynamic process of lysozyme fibrillation (lysozyme amyloid fibrils): could well detect the dynamic process of lysozyme fibrillation
binding constant of binding with the bovine insulin (comparison among dyes) (bovine insulin [3]): largest binding constant
replacement of ThT, ThS, NR bound to bovine insulin fibrils (bovine insulin fibrils [4]): replacement effect was obvious
fluorescence intensity of dye + insulin fibrils with increase of the illumination time (photostability) (insulin fibril): remained basically unchanged
Raman signal between 900-1100 cm-1 (bovine insulin [5]): the signal for QR-insulin was disappeared

CCN(CC)c1ccc2nc3c4ccccc4c(=O)cc-3oc2c1 [NR, nile red, reference compound]
identification of bovine insulin fibril (fluorescence intensity, dye comparison) (bovine insulin fibrils [1]; FIG. 5-A): could well identify the bovine insulin fibril
fluorescence intensity of dye + insulin fibrils with increase of the illumination time (photostability) (insulin fibril): decreased significantly
